From publication PMC9921564, “Novel Indole-Containing Hybrids Derived from Millepachine: Synthesis, Biological Evaluation and Antitumor Mechanism Study” (Molecules, 2023) come the findings set out here.

The target in the assay is T1, tubulin (Sus scrofa, UniProt P02554).
T1 construct: purchased cytoskeleton, Inc. BK011P
Briefly: in vitro tubulin polymerization inhibition assay. It counts as biochemical. As to the method:
Tubulin–microtubule homeostasis is crucial for cell mitosis.
Figure 2 Effect of compound 14b on tubulin. […] The experiments were performed at least three times, and representative images are shown. Scale bars are 10 μm. […] The backbone of tubulin is shown in ribbon representation (α-tubulin, yellow; β-tubulin, green). […] The data were shown as mean ± SE (standard error) of at least three independent experiments.
S Ⅳ. Biological evaluation methods
The cells grown in logarithmical phase were seeded in 96-well plates with the density of 5×10^3/well.
After 24 h, the medium containing different concentrations of tested compounds were added for another 48 h. Then, CCK-8 reagents were added to cells and continued to culture for 2 h. The optical density was recorded with a microplate reader at 570 nm (Thermo Scientific, Varioskan LUX). All the experiments were repeated independently at least three times and the IC50 values were calculated […]
S2. In vitro tubulin polymerization inhibition assay
The in vitro tubulin polymerization inhibition assay was conducted according to the manufacturer ’s instruction (cytoskeleton, cat. no. BK011P). Briefly, 5 μL of the tested compounds at the indicated

T1 sequence (P02554 whole entry): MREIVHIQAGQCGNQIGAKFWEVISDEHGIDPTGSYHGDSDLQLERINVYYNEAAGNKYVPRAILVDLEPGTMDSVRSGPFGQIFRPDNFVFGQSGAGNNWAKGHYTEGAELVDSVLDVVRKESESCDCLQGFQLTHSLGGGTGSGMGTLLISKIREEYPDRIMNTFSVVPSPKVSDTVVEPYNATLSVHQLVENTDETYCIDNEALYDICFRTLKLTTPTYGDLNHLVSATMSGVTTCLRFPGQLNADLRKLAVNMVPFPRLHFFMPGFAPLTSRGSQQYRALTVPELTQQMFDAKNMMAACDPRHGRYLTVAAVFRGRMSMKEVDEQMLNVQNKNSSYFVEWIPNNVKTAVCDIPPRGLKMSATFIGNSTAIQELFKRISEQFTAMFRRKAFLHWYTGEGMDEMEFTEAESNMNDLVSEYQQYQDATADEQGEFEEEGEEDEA
T1 sequence (P02550 whole entry partner): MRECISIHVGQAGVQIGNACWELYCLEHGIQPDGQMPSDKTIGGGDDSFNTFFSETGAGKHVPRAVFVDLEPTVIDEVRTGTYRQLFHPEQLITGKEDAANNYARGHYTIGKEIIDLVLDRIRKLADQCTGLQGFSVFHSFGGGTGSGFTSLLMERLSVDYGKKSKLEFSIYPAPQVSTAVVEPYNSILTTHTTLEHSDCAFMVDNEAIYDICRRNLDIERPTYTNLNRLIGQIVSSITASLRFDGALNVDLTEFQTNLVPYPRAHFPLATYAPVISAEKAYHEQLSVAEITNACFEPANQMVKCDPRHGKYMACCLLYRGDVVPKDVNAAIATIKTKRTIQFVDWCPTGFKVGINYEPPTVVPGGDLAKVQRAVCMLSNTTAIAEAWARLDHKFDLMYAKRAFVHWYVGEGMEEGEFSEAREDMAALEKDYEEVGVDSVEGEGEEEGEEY

The term IC50 denotes the concentration at which inhibition is half-maximal. For the molecule `COc1ccc(C(=O)c2ccc3c(ccn3C)c2)c2c1C=CC(C)(C)O2` [compound 14b, (5-methoxy-2,2-dimethyl-2H-chromen-8-yl)(1-methyl-1H-indol-5-yl)methanone], where the note is “5 μM, Figure 2A,B”, the “effect on tubulin polymerization” value is reported as “inhibited tubulin polymerization in a colchicine-like manner”. Moreover, the IC50 (in vitro, area under the curve) is 2070 ± 150 nM.
